In publication PMC7083851, “Extended pharmacodynamic responses observed upon PROTAC-mediated degradation of RIPK2” (Communications Biology, 2020):
Several values for one entry are separate records, joined by “and”; a condition that tells them apart may be missing. Equal entries are not always repeated.

How the values were obtained:
RIPK2 [1] = biological target: T1, RIPK2 (Homo sapiens, UniProt O43353); test: RIPK2 degradation in THP-1 cells, capillary-based immunoassay, 18 h; format: cell-based; parameters: endogenous in cells; host or cells: THP-1 (ATCC TIB-202); conditions: for RIPK2 level relative to DMSO control, mean / RIPK2 level relative to DMSO control, replicate: THP-1, 18 h; for pDC50 (log half-maximal degradation concentration) of RIPK2: THP-1 cells, 18 h, n = 3
Procedure: The compounds were incubated with THP-1 cells for 18 h after which RIPK2 levels were determined using a capillary-based immunoassay (n = 3). All three PROTACs potently degraded RIPK2 in a concentration dependent manner (Fig. 1). […]. This discrepancy between the in vitro RIPK2 degradation and binding potency provides possible evidence for a catalytic mechanism of action of this compound.
(§1) Before treatment with compound or vehicle, THP1 cells, human and rat PBMCs were counted using Vi-Cell cell counter (Invitrogen) and adjusted to a final cell density of […] using complete growth medium. Cells or whole blood were treated with vehicle (0.1% DMSO) or fixed concentrations of compound up to 1 μM in half log unit increments and incubated for the time period indicated in the figure.
(§2) Simple Western immunoassay: Cell lysates were mixed with 5× concentrated master mix (Protein Simple) and denatured at 95 °C on a heat block for 5 min together with the provided ladder (Protein Simple). Antibodies were diluted in the provided buffer as following: anti-RIPK2 (1:10 or 1:50), anti-cIAP1(1:10), anti-cIAP2 (1:10), anti-XIAP (1:10), mouse anti-β-actin (Abcam - 1:1000), rabbit anti-β-actin (Abcam - 1:50) and anti-vinculin (1:100). All reagents (blocking buffer, primary and secondary antibodies, streptavadin, luminol/peroxide, separation matrix, stacking matrix and water) were added to the Protein Simple plate containing the ladder and lysates and the plate was placed in a Protein Simple Western instrument and the Simple Western default size assay protocol was used. All samples were analyzed using the associated Compass software 3.1.7. The area under the peak values obtained for RIPK2, cIAP1, cIAP2 or XIAP were normalized relative to the control protein values.
(§3) In vitro experimental data were analyzed using a 4-parameter logistic equation in GraphPad Prism 5.0.4. to generate an estimate of the half-maximal concentration and maximal degradation, DC50 and Dmax value respectively, for concentration-degradation relationships. Cytokine levels were analyzed in a similar manner to yield IC50 and Imax values. […] Where analysis to a sigmoidal relationship was not possible, the data points are shown as mean ± s.e.m.

RIPK2 [2] = biological target: T1, RIPK2; test: RIPK2 fluorescence polarisation binding assay
RIPK2 [3] = biological target: T1, RIPK2; test: RIPK2 degradation in human PBMCs (immunoassay); format: cell-based; parameters: endogenous in cells; host or cells: primary human PBMCs from leukodepletion filters (NHSBT)
Procedure: (§4) PBMCs were isolated from leukodepletion filter from platelet aphaeresis supplied by National Health System Blood and Transplant—NHSBT Apheresed at NHBST.
as §1
(§5) Where the assessment of cytokines was performed, L18-MDP was added to the cell culture media (1 μg/ml) or to the rat blood samples (100 ng/ml) and samples were incubated for up to 4 h. […] Samples were them spun down at 1000 g and the cell culture supernatant, plasma or serum were collected for cytokines assessment, while cell pellets were used for RIPK2 and/or cIAP1, cIAP2, and XIAP levels analysis via immunoblotting.
as §2, with “All samples were analyzed using the associated Compass software 3.1.7.” left out
as §3

[4] = tested on: L18-MDP-induced TNFα release; test: L18-MDP-induced cytokine release (TNFα, IL1β, IL-6, IL-8, IL-10) in human PBMCs; format: cell-based; conditions: human PBMCs
Procedure: as §4, §1, §5
(§6) Cytokine measurement assay: Cytokine levels were measured in rat plasma or rat PBMCs cell culture supernatants using rat V-Plex TNFα, in human plasma or human PBMCs cell culture supernatants with either TNFα tissue culture or 7-plex kit. Rat serum and tissues samples from the in vivo L18-MDP acute inflammation model were analyzed using the rat TNFα, Il-6 and IL-8 U-Plex kits. All kits provided by Meso Scale Discovery (MSD). Levels of cytokines spontaneously released from human colon biopsies cell culture supernatants were measured using Human IL-1 beta/IL-1F2 DuoSet ELISA (Bio-techne), Human IL-6 ELISA (Immunotools) and Human TNF-alpha DuoSet ELISA (Bio-techne). All samples were processed accordingly to the manufacturer’s instructions. The MSD plates were analyzed using the MSD sector imager 6000 plate reader and cytokines concentration (pg/ml) was obtained by using the MSD DISCOVERY WORKBENCH software version 4.0.12.1
as §3

[5] = tested on: spontaneous IL-1β, IL-6, and TNFα release; test: Spontaneous cytokine release (IL-1β, IL-6, TNFα) from Crohn's disease patient intestinal biopsies; format: cell-based, human; conditions: prednisolone 1uM; individual biopsies; fig 4e
Procedure: (§7) Colonic biopsies or tissues were obtained during endoscopy or via surgical resection from Crohn’s Disease (CD) or Ulcerative Colitis (UC) patients (St Bartholomew’s Hospital, London). All patients gave informed written consent. For surgical specimens, the mucosa was dissected away from the submucosa and cut into pieces of ~10–20 mg. […] The supernatants were collected for cytokine measurement as detailed in cytokines assay section while tissues were used to determine RIPK2 levels.
as §6

[6] = tested on: spontaneous IL-1β, IL-6, and TNFα release; test: Spontaneous cytokine release (IL-1β, IL-6, TNFα) from ulcerative colitis patient intestinal biopsies; format: cell-based, human; conditions: prednisolone 1uM; individual biopsies; fig 4f
Procedure: as §7, §6

T1 sequence (O43353 whole entry): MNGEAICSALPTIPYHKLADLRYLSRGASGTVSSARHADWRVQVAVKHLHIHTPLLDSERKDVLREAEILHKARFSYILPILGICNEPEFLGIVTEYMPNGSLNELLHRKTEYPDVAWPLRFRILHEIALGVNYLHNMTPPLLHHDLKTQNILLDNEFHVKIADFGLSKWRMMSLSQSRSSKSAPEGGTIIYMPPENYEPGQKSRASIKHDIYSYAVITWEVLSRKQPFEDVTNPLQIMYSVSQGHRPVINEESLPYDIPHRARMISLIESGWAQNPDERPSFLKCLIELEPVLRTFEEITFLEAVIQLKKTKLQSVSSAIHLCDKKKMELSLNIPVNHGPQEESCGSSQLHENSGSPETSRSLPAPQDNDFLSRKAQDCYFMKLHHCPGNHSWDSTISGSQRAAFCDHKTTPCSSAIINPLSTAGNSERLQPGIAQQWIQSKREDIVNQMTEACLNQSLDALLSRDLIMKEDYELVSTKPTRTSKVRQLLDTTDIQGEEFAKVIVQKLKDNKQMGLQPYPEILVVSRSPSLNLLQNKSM

SMILES | RIPK2 level relative to DMSO control, mean (RIPK2 [1]; concentration 5.64503e-11 (uM)) | RIPK2 level relative to DMSO control, replicate (RIPK2 [1]; concentration 5.64503e-11 (uM)) | RIPK2 level relative to DMSO control, mean (RIPK2 [1]; concentration 1.69351e-10 (uM)) | RIPK2 level relative to DMSO control, replicate (RIPK2 [1]; concentration 1.69351e-10 (uM)) | RIPK2 level relative to DMSO control, mean (RIPK2 [1]; concentration 5.08053e-10 (uM)) | RIPK2 level relative to DMSO control, replicate (RIPK2 [1]; concentration 5.08053e-10 (uM)) | RIPK2 level relative to DMSO control, mean (RIPK2 [1]; concentration 1.52416e-9 (uM)) | RIPK2 level relative to DMSO control, replicate (RIPK2 [1]; concentration 1.52416e-9 (uM)) | RIPK2 level relative to DMSO control, mean (RIPK2 [1]; concentration 4.57247e-9 (uM)) | RIPK2 level relative to DMSO control, replicate (RIPK2 [1]; concentration 4.57247e-9 (uM)) | RIPK2 level relative to DMSO control, mean (RIPK2 [1]; concentration 1.37174e-8 (uM)) | RIPK2 level relative to DMSO control, replicate (RIPK2 [1]; concentration 1.37174e-8 (uM)) | RIPK2 level relative to DMSO control, mean (RIPK2 [1]; concentration 4.11523e-8 (uM)) | RIPK2 level relative to DMSO control, replicate (RIPK2 [1]; concentration 4.11523e-8 (uM)) | RIPK2 level relative to DMSO control, mean (RIPK2 [1]; concentration 1.23457e-7 (uM)) | RIPK2 level relative to DMSO control, replicate (RIPK2 [1]; concentration 1.23457e-7 (uM)) | RIPK2 level relative to DMSO control, mean (RIPK2 [1]; concentration 3.7037e-7 (uM)) | RIPK2 level relative to DMSO control, replicate (RIPK2 [1]; concentration 3.7037e-7 (uM)) | RIPK2 level relative to DMSO control, mean (RIPK2 [1]; concentration 1.11111e-6 (uM)) | RIPK2 level relative to DMSO control, replicate (RIPK2 [1]; concentration 1.11111e-6 (uM)) | also measured
Cc1ncsc1-c1ccc(CNC(=O)[C@@H]2C[C@@H](O)CN2C(=O)[C@@H](NC(=O)COCCOCCOCCOCCOc2cc3nccc(Nc4ccc5scnc5c4)c3cc2S(=O)(=O)C(C)(C)C)C(C)(C)C)cc1 [PROTAC 1] | 137.19% | 137.14% and 131.67% and 142.75% | 152.51% | 155.57% and 149.03% and 152.92% | 122.01% | 106.27% and 143.87% and 115.89% | 89.18% | 63.87% and 96.25% and 107.40% | 27.32% | 23.09% and 35.58% and 23.29% | 9.76% | 12.67% and 5.77% and 10.83% | 6.61% | 11.20% and 7.66% and 0.96% | 5.05% | 9.24% and 2.76% and 3.15% | 6.31% | 7.12% and 6.30% and 5.51% | 33.78% | 1.60% and 12.61% and 87.13% | RIPK2 level relative to DMSO control, mean (RIPK2 [1]; concentration 3.33333e-6 (uM)): 14.14%; RIPK2 level relative to DMSO control, replicate (RIPK2 [1]; concentration 3.33333e-6 (uM)): 1.88% and 3.30% and 37.22%; RIPK2 level relative to DMSO control, mean (RIPK2 [1]; concentration 1e-5 (uM)): 11.28%; RIPK2 level relative to DMSO control, replicate (RIPK2 [1]; concentration 1e-5 (uM)): 13.04% and 4.22% and 16.59%; pDC50 (log half-maximal degradation concentration) of RIPK2 (RIPK2 [1]): 8.7 ± 0.1
CC(C)(C)S(=O)(=O)c1cc2c(Nc3ccc4scnc4c3)ccnc2cc1OCCOCCOCCOCCOCC(=O)Nc1cccc2c1CN([C@H]1CCC(=O)NC1=O)C2=O [PROTAC 3] | 146.59% | 194.68% and 98.50% | 122.55% | 71.16% and 101.63% and 194.85% | 97.79% | 93.88% and 82.74% and 116.75% | 112.46% | 101.29% and 70.25% and 165.85% | 60.56% | 92.51% and 28.00% and 61.18% | 42.80% | 81.76% and 12.71% and 33.93% | 29.73% | 51.94% and 1.28% and 35.96% | 21.93% | 35.50% and 5.30% and 24.99% | 20.89% | 34.52% and 2.06% and 26.09% | 14.85% | 24.75% and 3.56% and 16.23% | RIPK2 level relative to DMSO control, mean (RIPK2 [1]; concentration 3.33333e-6 (uM)): 15.39%; RIPK2 level relative to DMSO control, replicate (RIPK2 [1]; concentration 3.33333e-6 (uM)): 20.92% and 6.74% and 18.51%; RIPK2 level relative to DMSO control, mean (RIPK2 [1]; concentration 1e-5 (uM)): 22.12%; RIPK2 level relative to DMSO control, replicate (RIPK2 [1]; concentration 1e-5 (uM)): 28.44% and 5.50% and 32.40%; pDC50 (log half-maximal degradation concentration) of RIPK2 (RIPK2 [1]): 8.6 ± 0.4
CN[C@H](C)C(=O)N[C@@H](C(=O)N1CCC[C@@H]1c1nc(C(=O)c2ccc(F)cc2)cs1)C1CCN(C(=O)c2cnc(N3CCN(CCOc4cc5ncnc(Nc6n[nH]c(C)c6C)c5cc4S(=O)(=O)C(C)(C)C)CC3)nc2)CC1 [PROTAC 5] | – | – | – | – | – | – | – | – | – | – | – | – | – | – | – | – | – | – | – | – | RIPK2 FP pIC50 ± SEM (n) (RIPK2 [2]): 6.7 ± 0.05 (12); RIPK2 degradation in human PBMCs, in words (RIPK2 [3]): does not degrade RIPK2; hPBMC pDC50 ± SEM, 24 h (n = 3) (RIPK2 [3]; RIPK2 degradation, 24 h): Non-degrader; hPBMC MDP pIC50 ± SEM, 6 h (n = 3) ([4]; L18-MDP-induced TNFα release, 6 h): 6.5 ± 0.5; fold reduced potency in L18-MDP-induced TNFα release versus the active PROTAC ([4]; control PROTAC vs its enantiomer): more than 10 fold
C[C@]12C=CC(=O)C=C1CC[C@@H]1[C@@H]2[C@@H](O)C[C@@]2(C)[C@H]1CC[C@]2(O)C(=O)CO [prednisolone, reference compound] | – | – | – | – | – | – | – | – | – | – | – | – | – | – | – | – | – | – | – | – | IL-1b (Ctrl=DMSO = 100) [5]: 18 and 20 and 82 and 15 and 48 and 13 and 5 (2×) and 35 and 37 and 12 and 6 and 49 and 17; IL-6 (Ctrl=DMSO = 100) [5]: 26 (2×) and 27 and 10 and 1 and 8 and 46 and 63 and 31 and 7 and 42 and 40 and 90 and 50 and 9; TNFa (Ctrl=DMSO = 100) [5]: 29 and 15 and 42 and 28 and 19 and 0 and 13 and 33 and 46 (2×) and 27 and 26 and 38 and 23 and 66; IL-1b (Ctrl=DMSO = 100) [6]: 65 and 41 and 10 and 46 and 7 (2×) and 49 and 30 and 14 and 33 and 36 and 5 and 17 and 39 and 19 (2×) and 13 and 34 and 28; IL-6 (Ctrl=DMSO = 100) [6]: 58 and 14 and 16 and 25 and 18 and 9 and 12 and 5 (2×) and 74 and 26 and 34 and 28 and 19 and 3 and 21 and 17 and 48 and 24; TNFa (Ctrl=DMSO = 100) [6]: 36 and 19 and 40 and 48 and 18 (2×) and 56 and 8 and 33 and 55 and 69 and 27 and 38 (2×) and 20 and 25 and 35 and 14 and 39
